# Experimental data reported in patent US7771931B2, “Methods for diagnosing and treating diseases and conditions associated with protein kinase Cλ” (The General Hospital Corporation, priority 2001, dated 2010).
# Legend:
# [1] = tested on: PKCλ; assay: Antisense morpholino injection into zebrafish embryos; assay type: in vivo; details: injected into 1-4 cell embryos
# Method: An antisense morpholino oligonucleotide of sequence 5′-[…]-3′ (SEQ ID NO:6) (GeneTools, LLC) was dissolved at a concentration of […] in 1× Danieau's buffer (5 mM Hepes pH 7.6, 58 mM NaCl, 0.7 mM KCl, 0.6 mM Ca (NO3)2, 0.4 mM MgSO4). One nL of this solution or 1× Danieau's buffer was injected into each 1-4 cell embryo before allowing the embryos to develop at 28.50° C.
# [2] = tested on: zebrafish embryos; assay: Fusion order of heart primordia (cmlc2 expression, 16- and 18-somite stages); assay type: in vivo
# Method: (§1) Digoxigenin-labeled antisense RNA probes were generated by ill vitro transcription for cmlc2 (Yelon et al., supra), vmhc (Yelon et al., supra), and pax2.1 (Krauss et al., Development 113:1193-1206, 1991). In situ hybridization was carried out as described (Oxtoby et al., Nucleic Acids Res. 21:1087-1095, 1993). For whole-mount immunohistochemistry, embryos were fixed in 4% paraformaldehyde in phosphate-buffered saline (S46 and 3G8) or 80% methanol, 20% dimethyl sulfoxide (α-ZO-1), permeablized in acetone for 30 minutes at −20° C. (3G8), blocked with 5% fetal bovine serum, and incubated with the antibodies S46, 3G8 (Vize et al., Dev. Biol. 171:531-540, 1995), or α-ZO-1. An anti-mouse-horseradish peroxidase conjugate was used as secondary antibody for S46 and 3G8, and an Alexa 488-labeled anti-mouse secondary antibody was used for α-ZO-1 staining.
# [3] = tested on: zebrafish embryos; assay: Kidney epithelium of treated zebrafish embryos (apical marker 3G8); assay type: in vivo; details: embryos exposed to concentramide
# Method: as §1
# (§2) Fixed embryos were dehydrated, embedded in plastic (JB4, Polysciences, Inc.), and sectioned at 2-7 μm. Retinal sections were stained with hematoxylin-eosin or dapi.
# [4] = tested on: zebrafish embryos; assay: Anterior-posterior patterning by in situ hybridization (Pax2.1, cmlc2), 18-somite zebrafish embryos; assay type: in vivo
# Method: as §1
# [5] = tested on: zebrafish embryos; assay: Small molecule treatment of developing zebrafish embryos, visual inspection of heart patterning
# From the text: Visual inspection of the transparent embryos was used to identify small molecules that affect the global patterning of the heart.
# [6] = tested on: zebrafish embryos; assay: Retina histology of treated zebrafish embryos (hematoxylin-eosin, dapi); assay type: in vivo; details: concentramide-treated embryos
# From the text: as §2
# [7] = tested on: yeast; assay: Rate of proliferation of yeast; assay type: cell-based
# [8] = tested on: C. elegans embryo; assay: Early development of the C. elegans embryo (par-2::GFP strain KK871); assay type: in vivo; details: 34 μM concentramide
# Method: C. eleganis strain KK871 (par-2::GFP) was maintained at 25° C. For each sample, 10-15 adult worms were soaked in 80 μL M9 medium containing 34 μM concentramide, 0.25% dimethyl sulfoxide for 30-60 minutes. Worms were then cut open with a scalpel, and embryos were mounted on 2% agarose pads with coverslips. Embryos were allowed to develop at 25° C. before being photographed live.
# [9] = tested on: mammalian cells; assay: Bromodeoxyuridine incorporation in mammalian cells; assay type: cell-based
molecule,measurement,setting,value
5′-CTGTCCCGCAGCGTGGGCATTATGG-3′ (all phosphorodiamidate morpholino (PMO)) [antisense morpholino oligomers],phenotype of injected embryos compared with has mutation,[1],phenocopy the mutation entirely
CCCCCc1ccc(-c2ccc(/C=C/C(N)=O)cc2)nc1 [concentramide],fusion of posterior ends of the heart field,[2],failure to merge the posterior ends
same,irregular epithelial cell shapes and gaps between cells in the kidney,[3],did not observe these defects
same,distance between Pax2.1-expressing cells in the eyes and at the midbrain/hindbrain boundary,[4]; 18-somite embryos,reduced
same,distance between the anterior edge of the cmlc2-expressing field and the anterior extreme of the embryo,"[4]; 18-somite stage, n=12, wild-type 3.1+/−0.2",2.2+/−0.3 arbitrary units
same,phenotype at 6 μM compared with 6 nM,[5]; 6 μM versus 6 nM,virtually the same phenotype
same,brain development,[5]; concentramide-treated embryos,develop abnormally
same,heart phenotype of exposed embryos,[5]; embryos exposed to concentramide,compact hearts that do not sustain a circulation
same,cell death,[5]; general cytotoxicity,no increase in cell death is apparent
same,development relative to untreated siblings,[5]; general cytotoxicity,not delayed
same,stage before which concentramide must be present to induce the concentric chamber morphology,"[5]; more precise staging, approximately 15 hpf",< 14 somite stage
same,potency on specific molecular target versus other proteins affecting visible developmental processes,[5]; same phenotype at 6 μM and 6 nM,"at least 1,000 times"
same,heart morphology at 24 hpf,[5]; treated after 17 hpf,wild-type heart morphology
same,heart morphology at 24 hpf,[5]; treated at any time prior to 14 hpf,concentric chamber morphology
same,brain and heart phenotype with timed treatment,"[5]; treated between 9 and 14 hpf, concentric heart chamber phenotype preserved",eliminates this brain defect
same,"defects in cell polarity, RPE continuity, or lamination of the retina",[6],do not exhibit defects
same,effect on rate of proliferation of yeast,[7],no effect
same,Par2 localization,[8],retain proper localization of Par2 to the posterior pole
same,asymmetry of first cell division,[8],normally asymmetric first cell division
same,completion of development,[8],fail to complete development
same,cytokinesis,[8],cytolinetic defects
same,effect on bromodeoxyuridine incorporation,[9],no effect
